Like-named read-outs stand apart in the source and are kept apart here. Square brackets hold non-standard residues; d marks the D form. Peptide text beside a SMILES is read from it. Nspe = C[C@H](NCC(=O)O)c1ccccc1; Nlys = NCCCCNCC(=O)O
Experiments:
human erythrocytes = assay: Hemolysis assay; type: cell-based
Method: (§1) Hemolysis assays. Erythrocytes were isolated from freshly drawn, heparanized human blood and resuspended to 20 vol % in PBS (pH 7.4). In a 96-well microtiter plate, 100 μL erythrocyte suspension was added to 100 uL peptoid solution in PBS (prepared by 1:2 serial dilutions), or 100 μL PBS in the case of negative controls. 100% hemolysis wells contained 100 μL, blood cell suspension with 100 μL 0.2 vol % Triton X-100. The plate was incubated for 1 h at 37° C., then each well was diluted with 1504 PBS. The plate was then centrifuged at 1200 g for 15 min, 100 μL of the supernatant from each well transferred to a fresh microtiter plate, and A350 measured.
Hemolysis assays. Erythrocytes were isolated from freshly drawn, heparanized human blood and resuspended in PBS (pH 7.4) to make a 20% volume suspension. Peptoid solutions were prepared by serial dilution (2:1) in a 96-well microtiter plate. For test wells, 100 μLL of erythrocyte suspension was added to 100 μL of peptoid solution in PBS; PBS without peptoid was used as the negative control and 0.2 vol % Triton X-100 as the positive control that indicates 100% hemolysis. After 1 hour incubation at 37° C., each well was diluted with 150 μL PBS. Plates were then centrifuged at 1,200×g for 15 minutes to pellet the cells. 30 μL of the supernatant from each well were transferred to the corresponding well of a second 96-well plate that contains 70 μL PBS.
as §1, with “assays for Compositions.” for “assays.”, “100” for “100 uL”, “μL” for “μL,”, “150 μL” for “1504”, “1200g” for “1200 g”

E. coli ATCC 35218 = type: cell-based
Method: (§2) Whereas the preceding generation of molecules was designed to elucidate structure function relationships of specific molecular parameters (chirality, length, hydrophobicity, etc.), another generation compounds were designed explicitly to explore effects on selectivity. Antimicrobial activity of these compounds was tested against bacterial strains E. coli (ATTC 35218) and B. subtilis (ATTC 6633) in cation-adjusted MHB using the microdilution protocols previously described. The sequences, antimicrobial activities, hemolytic activities, and metabolic inhibitory concentrations against NIH 3T3 mouse fibroblast cells are summarized in Table 3 and the rationale of their design is described below.
(§3) Screening antibacterial assays. MICs were determined in 96-well microtiter plates in accordance with CLSI M7-A6 protocols. Peptoid solutions with 50 μL total volume were prepared using 2:1 serial dilutions. 50 i—tL of bacteria inoculum (1×10^6 CFU/mL) prepared in cation-adjusted Mueller-Hinton broth (CAMHB) was added to test wells. Control wells contained 100 μL MHB (no growth) or 50 μL inoculums with 50 μL MHB with no peptoid. […] Reported values were reproducible over three experiments, each containing two parallel trials.
(§4) Antibacterial Assays for Compositions. MICs were determined according to CLSI M7-A6 protocols in a 96-well microtiter plate. In test wells, 50 μL bacterial inoculum (1×10^6 CFU/ml) in cation-adjusted Mueller-Hinton broth (CAMHB) was added to 50 μL peptoid solution in CAMHB (prepared by 1:2 serial dilutions). Positive controls contained 50 μL inoculum and 50 μL CAMHB without peptoid. […] MIC values reported were reproducible between three independent experimental replicates, each consisting of two parallel trials.

B. subtilis ATCC 6633 = type: cell-based
Method: as §2, §3, §4

MTS assay, NIH 3T3 cells = type: cell-based, mouse; settings: mouse, NIH 3T3 fibroblast cells
Method: The potencies of all compounds were determined against representative Gram-negative (E. coli ATCC 35218) and Gram-positive (B. subtilis ATCC 6633) biosafety level 1 (BSL1) organisms. In addition to hemolytic activity, the conventional measure of toxicity to mammalian cells, the effect of each ampetoid on NIH 3T3 mouse fibroblast cells was determined using the MTS tetrazolium salt-based colorimetric assay. While hemolysis measures the degree to which erythrocytes are lysed, the MTS assay indirectly quantifies the extent to which cellular metabolic activity is inhibited.
MTS assays. NIH/3T3 cells (ATCC Corporation) cultured at 37° C. and 5% CO2 in complete Dulbecco's modified eagle's media (CDMEM) supplemented with 1% sodium pyruvate, 1% penicillin-streptomycin, 1.5 g/L NaHCO3, and 10% fetal bovine serum. Cells were seeded at a density of 5,000 cells per well for NIH/3T3 cells in 96-well plates (100 μl total volume). A peptoid solution plate (100 μL total volume per well) was prepared by serial dilution of aqueous peptoid stock solution in Hank's balanced salt solution (HBSS) media. The day-old cell monolayers were washed with HBSS and media was replaced with 100 μL HBSS. The contents of the peptoid solution plate were transferred onto corresponding wells of the cell monolayer plate, and 40 μL MTS reagent (Promega, Inc.) was added to each well. After incubating for 3 hours at 37° C., absorbance at 490 nm was determined. […] The average of six replicates is reported.

Row | Structure (SMILES) | HD10 (human erythrocytes) | HD50 (human erythrocytes) | E. coli MIC (E. coli ATCC 35218; ATCC 35218) [µM] | MIC for E. coli ATCC 35218 (E. coli ATCC 35218; ATCC 35218) [µM] | MIC for B. subtilis ATCC 6633 (B. subtilis ATCC 6633) [µM] | CC50 at 3 h (MTS assay, NIH 3T3 cells) [µM] | E. coli MIC (E. coli ATCC 35218; Table 6, E. coli ATCC 35218) [µM] | Selectivity ratio SR E. coli (E. coli ATCC 35218; Table 6, ratio of 10% hemolytic dose to E. coli MIC) | B. subtilis MIC (B. subtilis ATCC 6633; Table 6, B. subtilis ATCC 6633) [µM] | Selectivity ratio SR B. subtilis (B. subtilis ATCC 6633; Table 6, ratio of 10% hemolytic dose to B. subtilis MIC) | HD10 (10% hemolytic dose) (human erythrocytes; red cells of human, 1 h) [µM] | HD50 (50% hemolytic dose) (human erythrocytes; red cells of human, 1 h) [µM]
1 | C[C@@H](c1ccccc1)N(CC(N)=O)C(=O)CN(CCCCN)C(=O)CN(CCCCN)C(=O)CN(C(=O)CN(C(=O)CN(CCCCN)C(=O)CN(C(=O)CN(CCCCN)C(=O)CN(CCCCN)C(=O)CN(C(=O)CN(C(=O)CNCCCCN)[C@@H](C)c1ccccc1)[C@@H](C)c1ccccc1)[C@@H](C)c1ccccc1)[C@@H](C)c1ccccc1)[C@@H](C)c1ccccc1 [1-Nlys5,11, H-(Nlys-Nspe-Nspe-Nlys-Nlys-Nspe)2-NH2] (H-[Nlys][Nspe][Nspe][Nlys][Nlys][Nspe][Nlys][Nspe][Nspe][Nlys][Nlys][Nspe]-NH2) | >200/>200 μM | >200/>200 μM | 50 | 30 | 0.78 | 85 | – | – | – | – | – | –
2 | CC(C)[C@H](C)N(CC(N)=O)C(=O)CN(C(=O)CN(CCCCN)C(=O)CN(C(=O)CN(C(=O)CN(CCCCN)C(=O)CN(C(=O)CN(C(=O)CN(CCCCN)C(=O)CN(C(=O)CN(C(=O)CNCCCCN)[C@@H](C)C(C)C)[C@@H](C)C(C)C)[C@@H](C)C(C)C)[C@@H](C)C(C)C)[C@@H](C)C(C)C)[C@@H](C)C(C)C)[C@@H](C)C(C)C [1-Nsdpall, H-(Nlys-Nsdp-Nsdp)4-NH2] | – | – | – | – | – | 64 | 25 | > 8 | 0.78 | 256 | – | –
3 | C[C@@H](c1ccc2ccccc2c1)N(CC(N)=O)C(=O)CN(C(=O)CN(CCCCN)C(=O)CN(C(=O)CN(C(=O)CN(CCCCN)C(=O)CN(C(=O)CN(C(=O)CN(CCCCN)C(=O)CN(C(=O)CN(C(=O)CNCCCCN)[C@@H](C)c1ccccc1)[C@@H](C)c1ccccc1)[C@@H](C)c1ccccc1)[C@@H](C)c1ccc2ccccc2c1)[C@@H](C)c1ccccc1)[C@@H](C)c1ccccc1)[C@@H](C)c1ccccc1 [1-Nsna6,12, H-(Nlys-Nspe-Nspe-Nlys-Nspe-Nsna)2-NH2] | 7 µM | 27 µM | – | 25 to 50 | 0.78 to 1.6 | – | – | – | – | – | 4 | 22
4 | C[C@H](NCC(=O)N(CC(=O)N(CCCCN)CC(=O)N(CC(=O)N(CCCCN)CC(=O)N(CC(=O)N(CCCCN)CC(=O)N(CC(=O)N(CC(=O)N(CC(=O)N(CC(=O)N(CCCCN)CC(N)=O)[C@@H](C)c1ccccc1)[C@@H](C)c1ccccc1)[C@@H](C)c1ccccc1)[C@@H](C)c1ccccc1)[C@@H](C)c1ccccc1)[C@@H](C)c1ccccc1)[C@@H](C)c1ccccc1)c1ccccc1 [1scr, H-(Nspe)2-(Nlys-Nspe)3-(Nspe)3-Nlys-NH2] (H-[Nspe][Nspe][Nlys][Nspe][Nlys][Nspe][Nlys][Nspe][Nspe][Nspe][Nspe][Nlys]-NH2) | 64 µM | – | 6.3 | – | – | 8.5 | – | – | – | – | – | –
5 | C[C@@H](c1ccccc1)N(CC(=O)N(CCCCN)CC(=O)N(CC(=O)N(CC(=O)N(CCCCN)CC(=O)N(CC(=O)N(CC(=O)N(CCCCN)CC(N)=O)[C@@H](C)c1ccccc1)[C@@H](C)c1ccccc1)[C@@H](C)c1ccccc1)[C@@H](C)c1ccccc1)C(=O)CN(C(=O)CNCCCCN)[C@@H](C)c1ccccc1 [110 mer, H-(Nlys-Nspe-Nspe)3-Nlys-NH2] (H-[Nlys][Nspe][Nspe][Nlys][Nspe][Nspe][Nlys][Nspe][Nspe][Nlys]-NH2) | > 200 µM | – | 12.5 | – | – | 54 | – | – | – | – | – | –
